{
  "source": "patent US8697685B2",
  "about": "“Chemical compounds” (GlaxoSmithKline LLC, priority 2008, dated 2014)",
  "note": "pIC50: −log10 of the molar value.",
  "data": [
    {"tested_on": "AKT phosphorylation at T308 in PC-3 cells", "test": "Phospho-AKT (T308) ELISA in PC3 cells", "format": "cell-based", "conditions": "Homo sapiens, 6 hours compound treatment, in at least one experimental run, read-out: IC50 for inhibition of AKT phosphorylation at T308 in PC-3 cells", "procedure": "Phospho-AKT (S473, T308, Total AKT) and phospho-RSK ELISA\nPC3 cells (ATCC, Manassas, Va.) were plated in 96-well flat bottom plates (Corning, Lowell, Mass.) at a density of 15,000 cells/well in RPMI 1640 medium supplemented with 10% FBS. Cells were incubated at 37° C., 5% CO2 for 18-20 h. Compounds (dissolved in 100% DMSO) were diluted in an 11-point 3-fold dilution in DMSO. Compound dilution stocks were further diluted in RPMI 1640 with 10% FBS and added to each cell well. DMSO without compound was used in control wells. Final concentration of DMSO in each well was 0.15%. After 6 hours at 37° C. cells were washed with cold PBS (without calcium or magnesium) and lysed in lysis buffer (Meso Scale Discovery, Gaithersburg, Md.) supplemented with 1 protease inhibitor tablet/10 ml (Roche, Indianapolis, Ind.), 10 mM NaF, and 200 μl/10 ml Sigma phosphatase inhibitor 1 & 2 (Sigma Aldrich, St Louis, Mo.) for 30 min at 4° C. All washes were performed on a Bio Tek ELx405 plate washer (Bio Tek Instruments, Winooski, Vt.).\nELISA plates (Meso Scale Discovery; AKT Duplex, cat. N41100B-1; phospho AKT, cat. N411CAB-1; RSK, cat. N41ZB-1) were prepared by the addition of blocking buffer (3% Blocker A diluted in wash buffer (Meso Scale Discovery) for AKT duplex assay and phospho AKT assays; 5% Blocker A/1% Blocker B in Tris-buffered saline for RSK) for 1 hour and washed with wash buffer. Lysates were transferred to assay wells and incubated overnight at 4° C. Following washing with wash buffer, detection buffer (1% Blocker A in wash buffer for AKT duplex and phospho AKT or 1% Blocker A in TBS for RSK) with appropriate antibodies was added. Detection of AKT duplex and phospho AKT was carried out using a sulfo-tagged detection antibodies (Meso Scale Discovery). Detection of phospho-RSK was carried out sequentially with anti phospho-RSK1 (S221)/RSK2 (S227) (R&D systems, Minneapolis, Minn., cat. AF892) and goat anti-rabbit sulfo-tag antibody (cat R32AB-1; Meso Scale Discovery). Plates were incubated for 1 hour at room temperature and washed with wash buffer. Plates were read on a SECTOR™ Imager 6000 (Meso Scale Discovery) using Workbench software (Meso Scale Discovery) following addition of read buffer (Meso Scale Discovery) to each well. For analysis, phospho-AKT (S473) signals were normalized to total AKT, while phospho-AKT (T308) and phospho-RSK signals were analyzed without normalization. All values were expressed as percent of the DMSO-treated controls. IC50s were determined from inhibition curves using XLfit4 software (IDBS, Guildford, UK).", "values": [
      {"smiles": "CNc1nc(-c2ccc3c(N)n[nH]c3c2)cc(N2CC(C(=O)NC3CCCCC3)CCC2C(F)(F)F)n1", "note": "(stereo not drawn) [Example 49, Cis-1-[6-(3-Amino-1H-indazol-6-yl)-2-(methylamino)-4-pyrimidinyl]-N-cyclohexyl-6-(trifluoromethyl)-3-piperidinecarboxamide]", "pIC50": "> 6.00"},
      {"smiles": "C[C@@H]1CO[C@H](C(=O)Nc2ccccc2)CN1c1cc(-c2ccc3c(N)n[nH]c3c2)nc(N)n1", "note": "[Example 67, (2S,5R)-4-[2-Amino-6-(3-amino-1H-indazol-6-yl)-4-pyrimidinyl]-5-methyl-N-phenyl-2-morpholinecarboxamide]", "pIC50": "> 6.00"},
      {"smiles": "CNc1nc(-c2ccc3c(N)n[nH]c3c2)cc(N2C[C@@H](C(=O)Nc3ccccc3)CC[C@H]2C)n1", "note": "[Example 77, (3S,6R)-1-[6-(3-amino-1H-indazol-6-yl)-2-(methylamino)-4-pyrimidinyl]-6-methyl-N-phenyl-3-piperidinecarboxamide]", "pIC50": "> 6.00"},
      {"smiles": "CNc1nc(-c2ccc3c(N)n[nH]c3c2)cc(N2C[C@@H](C(=O)NC3CCCCC3)CC[C@H]2C)n1", "note": "[Example 78, (3S,6R)-1-[6-(3-Amino-1H-indazol-6-yl)-2-(methylamino)-4-pyrimidinyl]-N-cyclohexyl-6-methyl-3-piperidinecarboxamide]", "pIC50": "> 6.00"},
      {"smiles": "CNc1nc(-c2ccc3cn[nH]c3c2)cc(N2C[C@@H](C(=O)NCc3ccccc3)CC[C@H]2C)n1", "note": "[Example 81, (3S,6R)-1-[6-(1H-Indazol-6-yl)-2-(methylamino)-4-pyrimidinyl]-6-methyl-N-(phenylmethyl)-3-piperidinecarboxamide]", "pIC50": "> 6.00"},
      {"smiles": "CNc1nc(-c2ccc3c(C)n[nH]c3c2)cc(N2C[C@@H](C(=O)NC3CCCCC3)CC[C@H]2C)n1", "note": "[Example 83, (3S,6R)—N-Cyclohexyl-6-methyl-1-[2-(methylamino)-6-(3-methyl-1H-indazol-6-yl)-4-pyrimidinyl]-3-piperidinecarboxamide]", "pIC50": "> 6.00"},
      {"smiles": "CNc1nc(-c2cc(F)c3c(N)n[nH]c3c2)cc(N2C[C@@H](C(=O)NCc3ccccc3)CC[C@H]2C)n1", "note": "[Example 86, (3S,6R)-1-[6-(3-Amino-4-fluoro-1H-indazol-6-yl)-2-(methylamino)-4-pyrimidinyl]-6-methyl-N-(phenylmethyl)-3-piperidinecarboxamide]", "pIC50": "> 6.00"},
      {"smiles": "C[C@@H]1CC[C@H](C(=O)NC2CCCCC2)CN1c1cc(-c2ccc3c(N)n[nH]c3c2)nc(N)n1", "note": "[Example 121, (3S,6R)-1-[2-Amino-6-(3-amino-1H-indazol-6-yl)-4-pyrimidinyl]-N-cyclohexyl-6-methyl-3-piperidinecarboxamide]", "pIC50": "> 6.00"},
      {"smiles": "CC1CCC(NC(=O)[C@H]2CC[C@@H](C)N(c3cc(-c4ccc5c(N)n[nH]c5c4)nc(N)n3)C2)CC1", "note": "(stereo partly drawn) [Example 150, (3S,6R)-1-[2-Amino-6-(3-amino-1H-indazol-6-yl)-4-pyrimidinyl]-6-methyl-N-(4-methylcyclohexyl)-3-piperidinecarboxamide]", "pIC50": "> 6.00"},
      {"smiles": "CNc1nc(-c2ccc3c(N)n[nH]c3c2)cc(N2C[C@@H](C(=O)NCc3ccccc3)OC[C@H]2C)n1", "note": "[Example 161, (2S,5R)-4-[6-(3-Amino-1H-indazol-6-yl)-2-(methylamino)-4-pyrimidinyl]-5-methyl-N-(phenylmethyl)-2-morpholinecarboxamide]", "pIC50": "> 6.00"},
      {"smiles": "CC[C@@H]1CO[C@H](C(=O)NCc2ccccc2)CN1c1cc(-c2ccc3c(N)n[nH]c3c2)nc(NC)n1", "note": "[Example 176, (2S,5R)-4-[6-(3-Amino-1H-indazol-6-yl)-2-(methylamino)-4-pyrimidinyl]-5-ethyl-N-(phenylmethyl)-2-morpholinecarboxamide]", "pIC50": "> 6.00"},
      {"smiles": "C[C@@H]1C[C@@H](NC(=O)OC(C)(C)C)CN(c2cc(-c3ccc4c(N)n[nH]c4c3)nc(N)n2)C1", "note": "[Example 212, 1,1-Dimethylethyl{(3R,5R)-1-[2-amino-6-(3-amino-1H-indazol-6-yl)-4-pyrimidinyl]-5-methyl-3-piperidinyl}carbamate]", "pIC50": "> 6.00"}
    ]},
    {"target": "T1, full length PDK1 (Homo sapiens, UniProt O15530)", "T1 construct": "Full-length human 3-Phosphoinositide Dependent protein Kinase-1; made in house; host or cells: baculovirus / Sf9 insect cells", "T1 sequence (O15530 1-556)": "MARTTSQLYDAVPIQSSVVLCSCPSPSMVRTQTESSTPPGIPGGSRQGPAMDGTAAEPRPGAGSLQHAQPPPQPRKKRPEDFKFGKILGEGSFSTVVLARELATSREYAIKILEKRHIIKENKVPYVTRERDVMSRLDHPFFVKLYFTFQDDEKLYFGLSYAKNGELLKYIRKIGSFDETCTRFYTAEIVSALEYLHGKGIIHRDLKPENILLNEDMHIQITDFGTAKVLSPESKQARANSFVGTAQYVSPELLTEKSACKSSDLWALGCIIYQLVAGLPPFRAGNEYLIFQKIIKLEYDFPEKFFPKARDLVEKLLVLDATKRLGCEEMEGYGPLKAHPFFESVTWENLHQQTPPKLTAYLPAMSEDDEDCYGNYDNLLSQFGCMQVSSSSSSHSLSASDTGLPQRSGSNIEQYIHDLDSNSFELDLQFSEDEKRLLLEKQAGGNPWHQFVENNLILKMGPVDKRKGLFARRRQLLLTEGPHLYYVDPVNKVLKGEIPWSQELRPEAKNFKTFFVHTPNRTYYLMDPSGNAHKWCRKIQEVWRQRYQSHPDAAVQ", "test": "PDK1 enzyme assays (substrate phosphorylation: LEADseeker scintillation proximity, TR-FRET, PDKtide)", "format": "biochemical", "conditions": "in at least one experimental run, read-out: IC50 against full length PDK1", "procedure": "Substrate phosphorylation assays are carried out as follows:\nBiotinylated-hAKT1: Human AKT1 (containing amino acid residues 136-480, as annotated by National Center for Biotechnology Information (NCBI) accession number AAL55732.1, with a MetLysLysHis6 N-terminal addition) is purified to >90% from lysate of baculovirus expression by Nickel Chelating ProBond resin (InVitrogen), Q-Sepharose Fast Flow, and Superdex 200 size exclusion chromatography. Biotinylation is achieved using EZ-Link Sulfo-NHS-LC Biotin (Pierce). Samples, in 25 mM HEPES, pH 7.5, 200 mM NaCl, 2 mM DTT, and 30% glycerol are stored at −80C until use.\nFull-length human 3-Phosphoinositide Dependent protein Kinase-1 (hPDK1; National Center for Biotechnology Information (NCBI) accession number AAH39158.1 with a MetGlyHis6 N-terminal addition) is purified from baculovirus expression in Sf9 cells. Purity of approximately 80% is achieved by the use of chelation chromatography (Ni-NTA Superflow) and desalting columns. Samples, in 25 mM HEPES, 150 mM NaCl, 2.5 mM DTT, 0.05% Triton, 30% glycerol, pH 8.0, are stored at −80° C. until use.\nThe 39 amino acid biotinylated-PDKtide peptide Seq. ID No. 1: (Biotin-Ahx-[…]) was custom synthesized by 21st Century Biochemicals. […] The concentration was confirmed by quantitative amino acid analysis.\nScintillation Proximity (LEADseeker) Kinase Assay of Purified hPDK1:\nAssays are performed in 384-well microtiter plates (Greiner, Catalog No. 784075). The reaction volume (10 μl) contains, in final concentrations, 25 mM MOPS (pH 7.5), 10 mM MgCl2, 50 mM KCl, 0.1 mg/ml BSA, 1 μM ATP, 3 uCi/ml ^33PγATP, 5 mM DTT, 1 mM CHAPS or 0.05% Tween20, 0.35 μM AKT1 biotinylated protein, and 10 nM hPDK1.\nCompounds, titrated in DMSO, are evaluated at eleven concentrations ranging from 50 μM to 2 μM. […] Reactions are stopped after 3 hours at room temperature by the addition of 50 mM EDTA, 5 mg/ml LEADseeker beads (GE Healthcare) in PBS (10 ul). Beads are allowed to settle overnight, and samples are imaged on Viewlux (PerkinElmer).\nThe data for compound concentration responses were plotted as % Inhibition, calculated with the data reduction formula 100*(1−[(U1−C2)/(C1−C2)]), versus concentration of compound, where\nData were fitted to the curve described by:\nTR-FRET Kinase Assay of Purified hPDK1:\nAssays are performed in 384-well microtiter plates (Greiner, Catalog No. 784076).\nAs previously described for the Scintillation Proximity protocol, hPDK1 is pre-incubated (30 minutes at room temperature) with compounds before initiating phosphorylation of AKT1 by addition of substrate to the hPDK1 and compound mix. Reactions are stopped after 4-6 hours at room temperature by the addition to final concentrations of 0.02 M EDTA, 0.0875 μM Streptavidin APC (PerkinElmer), 0.03 μM AKT1 (phospho T308) antibody (Abcam Inc.), 0.00375 μM Lance Eu-labeled anti rabbit IgG Antibody (PerkinElmer). Antibody binding reaches equilibrium in 30 minutes before signal is read on an EnVision™ 2103 Multilabel Reader (PerkinElmer). APC Signals are normalized to Europium signal. Data processing is the same as described for the Scintillation Proximity assay with the exception of the generation of the “C2” control by addition of buffer without hPDK1 to control wells at t=0 instead of EDTA.\nScintillation Proximity (LEADseeker) Kinase Assay of Purified hPDK1 using Biotinylated-PDKtide Peptide:\nAssays are performed in 384-well microtiter plates (Greiner, Catalog No. 784075). The reaction volume (10 μl) contains, in final concentrations, 25 mM MOPS (pH 7.5), 10 mM MgCl2, 50 mM KCl, 0.1 mg/ml BSA, 1 μM ATP, 3 uCi/ml ^33PγATP, 5 mM DTT, 0.5 mM CHAPS, 1 μM biotinylated-PDKtide peptide, and 0.5 nM hPDK1.\nCompounds, titrated in DMSO, are evaluated at eleven concentrations ranging from 25 μM to 0.4 pM. […] Reactions are stopped after 4 hours at room temperature by the addition of 50 mM EDTA, 5 mg/ml LEADseeker beads (GE Healthcare) in PBS (10 ul).", "values": [
      {"smiles": "CNc1nc(-c2ccc3c(C)n[nH]c3c2)cc(N2C[C@@H](C(=O)NC3CCCCC3)CC[C@H]2C)n1", "note": "[Example 83, (3S,6R)—N-Cyclohexyl-6-methyl-1-[2-(methylamino)-6-(3-methyl-1H-indazol-6-yl)-4-pyrimidinyl]-3-piperidinecarboxamide]", "pIC50": "> 7.70"},
      {"smiles": "CNc1nc(-c2ccc3c(N)n[nH]c3c2)cc(N2C[C@@H](C(=O)NCc3ccccc3)OC[C@H]2C)n1", "note": "[Example 161, (2S,5R)-4-[6-(3-Amino-1H-indazol-6-yl)-2-(methylamino)-4-pyrimidinyl]-5-methyl-N-(phenylmethyl)-2-morpholinecarboxamide]", "pIC50": "> 7.70"}
    ]}
  ]
}
